Values quoted from earlier work as cited in patent publication EP2654723B1, “Solid pharmaceutical dosage forms comprising tadalafil and methods of preparation thereof” (Zaklady Farmaceutyczne Polpharma SA, priority 2010, dated 2012).

Assays:
[1] = at 37°C

In the case of CN1CC(=O)N2[C@H](c3ccc4c(c3)OCO4)c3[nH]c4ccccc4c3C[C@@H]2C1=O [Tadalafil, (6R-trans)-6-(1,3-benzodioxol-5-yl)-2,3,6,7,12,12a-hexahydro-2-methyl-pyrazino [1', 2':1,6] pyrido[3,4-b]indole-1,4-dione], the experimental water solubility [1] is listed as “about 2 µg/mL”, the permeability is listed as “low permeability” and the BCS class (because of low solubility and low permeability) is listed as “BCS class IV”.
